The results in this text go back to US20230257480A1, “ENHANCING BLOOD-BRAIN BARRIER DRUG TRANSPORT BY TARGETING ENDOGENOUS REGULATORS” (THE BOARD OF TRUSTEES OF THE LELAND STANFORD JUNIOR …, priority 2019, published 2023).

This assay relates to brain parenchymal cells. The experiment in a line: Flow cytometry of brain parenchymal (CD31-/CD45-) cell uptake of tracer after ALPL inhibitor treatment. It counts as in vivo, mice. The settings on record: vs vehicle. The source says: FIG. 12A is a dot plot representation of cell-surface, druggable gene candidates on brain endothelial cells. Genes were plotted by their degree of blood-brain barrier specificity (Daneman et al., PLoS One (2010). doi:10.1371/journal.pone.0013741) and correlation with plasma uptake. Genes were colored by their upregulation (brown) or downregulation (green) with age. FIG. 12B includes representative images of calcified nodules (Alizarin red staining) detected in aged (23 m.o.—bottom panel) but not young (3 m.o.—top panel) mice, recapitulating nodules seen in pericyte-deficient Pdgfbret/ret mice (Keller et al., Nat. Genet. (2013). doi:10.1038/ng.2723) (representative image of n=5 mice per age). FIG. 12C includes representative images of Type I Collagen expression (green) in Lectin^+ vasculature (red) in the cerebral cortex of young (3 m.o.—left panels) and aged (23 m.o.—right panels) mice. Scale bar=40 microns. FIG. 12D includes representative images of ALPL expression (yellow) in AQP4^+ vasculature (purple) in the cerebral cortex of young (3 m.o.—left panels) and aged (23 m.o.—right panels) mice. Scale bar=40 microns. FIG. 12E is a graph illustrating quantification of ALPL expression in the cerebral cortex vasculature of young (3 m.o.) and aged (23 m.o.) mice (n=7, two-sided t-test; mean+/−s.e.m.). FIG. 12F is a schematic diagram illustrating cerebrovascular ALPL inhibition. Aged (22 m.o.) mice were injected intraperitoneally with vehicle or ALPL inhibitor twice a day for three days before intravenous injection of plasma, human holotransferrin, or transferrin receptor antibody. Uptake in the brain endothelium and parenchyma was assessed by flow cytometry and confocal microscopy of the cortex and hippocampus. FIG. 12G includes representative images of ectopic ALPL activity (red) in the cerebral cortex vasculature of aged (22 m.o.) mice treated with ALPL inhibitor (anti-ALPL) or vehicle and in young (3 m.o.) mice. FIG. 12H is a graph illustrating quantification of ALPL activity in the cerebral cortex vasculature of aged (22 m.o.) mice treated with ALPL inhibitor (anti-ALPL) or vehicle and in young (3 m.o.) mice (n=6-9, one-way ANOVA with Tukey's multiple comparisons correction; mean+/−s.e.m.). FIGS. 12I-12L include graphs illustrating flow cytometry quantification of brain parenchymal (CD31−/CD45−) cell uptake of plasma in aged (22 m.o.) mice (FIG. 12I); plasma in young (3 m.o.) mice (FIG. 12J); human holo-transferrin (hu-Tf) in aged (22 m.o.) mice (FIG. 12K); or transferrin receptor antibody (TfR Ab) in aged (22 m.o.) mice (FIG. 12L) after ALPL inhibitor (anti-ALPL) and vehicle treatment, as assessed by the percent (%) of parenchymal cells that are tracer^+ and the relative mean fluorescence intensity (MFI) of tracer^+ parenchymal cells (for plasma, n=4; for hu-Tf, n=5-6; for TfR Ab, n=9, two-sided t-test; mean+/−s.e.m.). Tracer refers to plasma, hu-Tf, or TfR Ab FIG. 12M includes representative images of transferrin receptor antibody (TfR Ab) in the cortical vasculature (red) and parenchymal cells of ALPL inhibitor-treated aged (22 m.o.) mice. Arrowheads indicate TfR Ab^+ NeuN neurons. Scale bar=40 microns (left) and 10 microns (right). Data were replicated in at least 2 independent experiments.
CNS cell isolation adopted previously described methods42,139,140. Briefly, cortices and hippocampi were microdissected, minced, and digested using the Neural Dissociation Kit (Miltenyi). Suspensions were filtered through a 100 μm strainer and myelin removed by centrifugation in 0.9 M sucrose. The remaining myelin-depleted cell suspension was blocked for ten minutes with Fc preblock (CD16/CD32, BD 553141) on ice and stained for 30 minutes with antibodies to distinguish brain endothelial cells (CD31+/CD45−), astrocytes (ACSA-2+), and neurons (NeuN+ or CD90.2/Thy1.2+). For analysis of plasma uptake, at least 1,000 cells of each population of interest were analyzed per sample. […]
(In flow cytometry, cells or beads pass a laser one at a time.)

On to `COc1ccc(OC)c(S(=O)(=O)Nc2cnc3ccccc3c2)c1` [ALPL inhibitor, 2,5-Dimethoxy-N-(quinolin-3-yl)benzenesulfonamide], for which, under “aged (22 m.o.) mice, TfR Ab 20 mg/kg i.v.”, the “parenchymal uptake of transferrin receptor antibody” value is “increased”. In addition, the “parenchymal uptake of human holo-transferrin” value (aged (22 m.o.) mice, hu-Tf 40 mg/kg i.v.) is “increased”. The “amount of plasma taken up by participating cells” value (aged mice, parenchymal cells (MFI)) is reported as “increased”. Also, the “percentage of plasma+ cells” value (aged mice, parenchymal cells) is “did not change”. For the same molecule, the “plasma transport across the endothelium to brain parenchymal cells” value (aged mice) is “increased”. Moreover, the “plasma transcytosis across the young BBB to the parenchyma” value (young (3 m.o.) mice) was “did not significantly enhance”.
